Patent US7446095B2, “Peptides modulating caspase activation” (priority 2002, dated 2008)
“Also recorded” adds a separate entry of the source. Bridges are numbered along the chain shown (N, C = ends). Where no end group is shown, it is not given here.

How the values were obtained:
U-937 cells [1] = experiment: Direct effect of peptides on U-937 cell proliferation ([3H]-thymidine incorporation); format: cell-based, human; conditions: peptides in dose 1 mM; U-937 cell proliferation vs control without additions
Experimental: Cells, cultivated without additions, were taken as a control.
(§1) To assess growth regulative activity of peptides various doses of peptides were added to the cells for 24 h and then the cells were assessed for proliferation, cell viability and DNA-fragmentation. To determine ability of peptides to modulate apoptosis induced by other factors Jurkat cells were treated with 20 ng/ml of CH-11 antibodies without ActD, Raji cells were treated with CH-11 in the presence of 0.5 μg/ml of ActD for 18 h. For induction of apoptosis with TNF-α, cells (Jurkat, MCF7 or U937) were treated for 24 h with 25 ng/ml of the cytokine and then were assessed for proliferation or viability as described above. HepG2 cells were pre-washed before TNF addition with fresh medium to remove endogenous growth factors.

U-937 cells [2] = experiment: Modulation of AFP-induced apoptosis / growth suppression in U-937 cells ([3H]-thymidine incorporation); format: cell-based, human; conditions: for Effect on AFP-induced apoptosis in whole cells (in words): 15 min peptide pre-treatment, then 3 μM AFP, 24 h
Experimental: Cell proliferation was assessed by [^3H]-thymidine incorporation assay after 24 h of incubation.
The cells were treated for […] with various doses of the peptides and thereafter 3 μM pure human AFP was added to each well. Cell proliferation was assessed by the [^3H]-thymidine incorporation assay after 24 h of incubation.
The cells were treated for 15 min with various doses of the peptide and thereafter 3 μM pure human AFP was added to each well. Cell proliferation was assessed by the [^3H]-thymidine incorporation assay after 24 h of incubation.
U937 cells were plated out at a density of 4×10^3 cells/well in flat-bottom 96-well plates (Costar) in the complete medium and incubated for 2 h before reagent additions. Then cells were treated for 24 h with various doses of AFP dissolved in PBS and then assessed for proliferation. Cell treatment with cytotoxic IgM anti-Fas antibody CH-11 was performed as described. U937 cells were treated with 50 ng/ml of CH-11 antibodies for 18 h. Cells were left untreated or were treated with reagents for adequate time intervals and for the last 4 h of culture were subjected to their [^3H]-thymidine (1 Ci/mmol/well) incorporation. Experimental data were expressed as a percentage of [^3H]-thymidine incorporation in triplicate cultures relative to the medium control. Cells, cultivated without additions, were taken as a control.
as §1

[3] = test system: caspase-3 activation (DEVDase activity); experiment: dATP-dependent Cyt c-induced caspase-3 (DEVDase) activation in cell-free cytosolic extracts of HepG2 cells; format: biochemical, human; conditions: for Effect on high dose cytochrome c-mediated caspase activation (in words) / Effect on low dose cytochrome c-induced caspase activation (in words): cell-free extracts, 15 min pre-treatment; for Effect on high dose cytochrome c-mediated caspase activation (in words) / Effect on low dose cytochrome c-induced caspase activation (in words) / Effect on the high dose Cyt c-induced caspase activation: peptides 750 μM; for Effect on high dose cytochrome c-mediated caspase activation (in words): high dose (165 nM) cytochrome c; for Effect on low dose cytochrome c-induced caspase activation (in words): low dose (110 nM) cytochrome c; for Effect on the high dose Cyt c-induced caspase activation / Effect on the low dose Cyt c-induced caspase activation (stimulation, or result in words) / Effect on the low dose Cyt c-induced caspase activation (abrogation): DEVDase activity; for Effect on the high dose Cyt c-induced caspase activation / Effect on the low dose Cyt c-induced caspase activation (abrogation): numbers are % abrogation; for Effect on the low dose Cyt c-induced caspase activation (stimulation, or result in words): numbers are % stimulation
Experimental: Peptides in the concentration of 750 μM were added to the cell extracts 15 min before the cytochrome c addition. Caspase activation was monitored by the cleavage of caspase-3-specific fluorogenic substrate DEVD-AMC.
(§2) HepG2, human hepatocarcinoma cells and human monoblastoma cell line U937 originated from American Type Culture Collection. Cell extracts were prepared by lysing cells in a hypotonic extraction buffer. To obtain the cytosolic S-100 fraction, the cell lysate was centrifuged for 1 h at 100,000×g. Extracts were either used immediately or frozen at −70° C. for later use.
(§3) Cell-free reactions were typically set up in 13-μl reaction volumes. Apoptosis was induced by addition of various doses of bovine heart cytochrom c and/or purified human AFP in the presence of 1 mM dATP. For 13-μl scale reactions, 10 μl of cell extract (˜2-4 mg/ml, as determined by the Bradford assay) were supplemented with 1 μl of dATP, 1 μl of Cyt c and/or AFP solutions in reaction buffer to receive necessary final concentration of reagents. To assess activity of peptides, various doses of peptides being dissolved in the reaction buffer together with 1 mM dATP were added to the cell extracts. To determine ability of the peptides to modulate apoptotic effects of Cyt c and AFP, peptides were added to extracts 10 min before cytochrome c or AFP. Control samples were incubated with the equal volume of the buffer (3 μl) without reagent addition. To initiate apoptosis, extracts were incubated at 37° C. for 40 min.
(§4) At the end of a caspase activation reaction, extract aliquots (5 μl) were supplemented with fluorogenic substrate DEVD-AMC (3 mM) and then incubated for definite time intervals (0.5-1 h) at 37° C. Reactions were terminated by dilution with addition of 2.0 ml of ice-cold 0.2 mM sodium phosphate buffer, pH 7.5, followed by a measurement of fluorescence with a Perkin Elmer MPF-44A (λexc=365 nm and λem=440 nm ) fluorometer. For each sample, the fluorescence intensity was normalized in the respect of cytosolic protein concentration. Caspase activation was presented as the ratio between the normalized fluorescence intensity of the sample and the corresponding value measured with a control sample.
To test ability of various peptides to affect caspase activation induced by exogenous cytochrome c in cell free system, we used cytosolic cell extracts of HepG2 cells. Aliquots of cell extracts were pre-treated with 750 μM of peptides for 15 min and thereafter various doses of cytochrome c was introduced in the reaction mixture to induce caspase activation.

[4] = test system: caspase-3 activation (DEVDase activity); experiment: Cyt c/AFP-mediated caspase-3 activation in cell-free cytosolic extracts of HepG2 cells; format: biochemical, human; conditions: for Ability to affect AFP-induced Cyt c-dependent caspase activation: DEVDase activity, numbers are % abrogation; for Effect on Cyt c/AFP-mediated caspase-3 activation (in words): cell-free HepG2 cytosolic extracts, 1 mM dATP
Experimental: Caspase activation was monitored by the cleavage of specific caspase-3 fluorogenic substrate DEVD-AMC.
as §2, §3, §4

[5] = test system: caspase-3 activation (DEVDase activity); conditions: cell-free system, no dATP
Experimental: as §2
Cell-free reactions were typically set up in 13-μl reaction volumes. Apoptosis was induced by addition of various doses of bovine heart cytochrom c and/or purified human AFP in the presence of 1 mM dATP. For 13-μl scale reactions, 10 μl of cell extract (˜2-4 mg/ml, as determined by the Bradford assay) were supplemented with 1 μl of dATP, 1 μl of Cyt c and/or AFP solutions in reaction buffer to receive necessary final concentration of reagents. […]
as §4, with “Caspase activation was presented as the ratio between the normalized fluorescence intensity of the sample and the corresponding value measured with a control sample.” left out

U-937 cells [6] = test system: U-937 cells
[7] = test system: caspase-3 activation (DEVDase activity); experiment: dATP-dependent Cyt c-induced caspase-3 (DEVDase) activation in cell-free cytosolic extracts of HepG2 cells; format: biochemical, human

Molecule	Effect on the cell growth (% of control) (U-937 cells [1])	Effect on AFP-induced apoptosis in whole cells (in words) (U-937 cells [2])	Effect on high dose cytochrome c-mediated caspase activation (in words) [3]	Effect on low dose cytochrome c-induced caspase activation (in words) [3]	Effect on the high dose Cyt c-induced caspase activation ([3]; cell-free system)	Effect on the low dose Cyt c-induced caspase activation (stimulation, or result in words) ([3]; cell-free system)	Ability to affect AFP-induced Cyt c-dependent caspase activation ([4]; cell-free system)	other results
*Cys-Cys-His-Gly-Asp-Leu-Leu-Glu-Cys* (CCHGDLLEC; disulfide 1-9) [Cyclic peptide from human serum albumin]	+18 % of control	no activity	no activity	no effect	no effect	no effect	no effect	–
*Cys-*Cys-Arg-Gly-Asp-Val-Leu-Asp-Cys* [apocyclin-A]	+12 % of control	completely abrogates; also recorded: completely cancelled	decreased; also recorded: significantly inhibited; also recorded: practically completely abrogated; also recorded: significant inhibition	significantly enhanced; also recorded: moderately supported; also recorded: notably enhanced; also recorded: same stimulation as full-length AFP molecule	50-80%	30% stimulation	70-80%	Stimulation of proliferation relatively to the medium control (U-937 cells [2]; 15-min pre-treatment with 1 mM, 24-h cultivation): 15%; Inhibition of caspase activation induced by high doses of endogenous cytochrome c ([3]; peptide 750 μM, cell-free system): 50-70%; Effect on Cyt c/AFP-mediated caspase-3 activation (in words) [4]: abrogates; also recorded: cancelled; Inhibition of Cyt c/AFP-mediated caspase activation ([4]; cell-free system, combined cytochrome c/AFP treatment): 60-80%; Induction of DEVD-ase activity without dATP addition (in words) [5]: unable to induce; Abrogation of the total anti-Fas-mediated apoptosis effect (U-937 cells [6]; 0.5 mM peptide, U-937 cells, various doses of CH-11): about 50%; Inhibition of anti-Fas-induced apoptosis (in words) (U-937 cells [6]; peptide concentration up to 1 mM, U-937 cells): more significant inhibition; Inhibition of anti-Fas-mediated cell death (in words) (U-937 cells [6]; summary statement, concentration not given): significantly inhibits
RGDVLD [Linear 6-mer peptide from AFP]	+10 % of control	did not revealed any apoptosis-regulating activity; also recorded: incapable of regulation	significant inhibition	significant abrogation	80% abrogation	–	no effect	Effect on AFP-induced apoptosis in whole cells (in words) (U-937 cells [2]; listed as p25): not in the whole cells; Effect on the low dose Cyt c-induced caspase activation (abrogation) ([3]; cell-free system): 30-50%; Retention of apocyclin-A's modulation of Cyt c-mediated caspase activation in a cell-free system (in words) ([3]; summary statement): partially retained this activity; Effect on Cyt c/AFP-mediated caspase-3 activation (in words) [4]: able to abrogate
HGDLLE [Linear peptide from HSA]	+20 % of control	did not affect	significant inhibition	significant abrogation	90% abrogation	–	no effect	Effect on the low dose Cyt c-induced caspase activation (abrogation) ([3]; cell-free system): 70% abrogation
*Cys-Gly-His-Gly-Asp-Leu-Leu-Glu-Cys* (CGHGDLLEC; disulfide 1-9 (inferred)) [Cyclic peptide from HSA, Cys substituted for Gly]	–	did not affect	–	–	–	–	–	–
*Cys-Gly-Arg-Gly-Asp-Val-Leu-Asp-Cys*	−12 % of control	failed to abrogate; also recorded: no activity	no activity	no effect	no effect	no effect	no effect	–
AFP: Human alpha-fetoprotein isolated from the cord serum, purity not less than 99.8% (protein, UniProt P02771 19-609, looked up) Alpha-fetoprotein: RTLHRNEYGIASILDSYQCTAEISLADLATIFFAQFVQEATYKEVSKMVKDALTAIEKPTGDEQSSGCLENQLPAFLEELCHEKEILEKYGHSDCCSQSEEGRHNCFLAHKKPTPASIPLFQVPEPVTSCEAYEEDRETFMNKFIYEIARRHPFLYAPTILLWAARYDKIIPSCCKAENAVECFQTKAATVTKELRESSLLNQHACAVMKNFGTRTFQAITVTKLSQKFTKVNFTEIQKLVLDVAHVHEHCCRGDVLDCLQDGEKIMSYICSQQDTLSNKITECCKLTTLERGQCIIHAENDEKPEGLSPNLNRFLGDRDFNQFSSGEKNIFLASFVHEYSRRHPQLAVSVILRVAKGYQELLEKCFQTENPLECQDKGEEELQKYIQESQALAKRSCGLFQKLGEYYLQNAFLVAYTKKAPQLTSSELMAITRKMAATAATCCQLSEDKLLACGEGAADIIIGHLCIRHEMTPVNPGVGQCCTSSYANRRPCFSSLVVDETYVPPAFSDDKFIFHKDLCQAQGVALQTMKQEFLINLVKQKPQITEEQLEAVIADFSGLLEKCCQGQEQEVCFAEEGQKLISKTRAALGV	–	–	–	–	80% abrogation	50% stimulation	–	Caspase activation in 'silent' cytosolic extracts with low suboptimal dose of exogenous cyt-c and dATP (in words) ([7]; AFP 7 μM, time-dependent, up to two hours): triggered the process of caspase activation; Caspase activation in the absence of dATP (in words) ([7]; S100 cytosolic extract, no dATP): did not induce any caspase activation; Induction of caspase-3-specific DEVDase activity in S100 cytosolic extract (in words) ([7]; protein 7 μM with dATP 1 mM, no exogenous cyt-c, up to 2 h): triggered dATP-dependent induction
